Measurements from PMC5084075 (ACS Central Science, 2016).

target: T1, PfDHODH (Plasmodium falciparum, UniProt Q08210); assay: biochemical; set-up: PfDHODH enzyme inhibition IC50; conditions: read-out: DHODH
T1 sequence (Q08210 1-569): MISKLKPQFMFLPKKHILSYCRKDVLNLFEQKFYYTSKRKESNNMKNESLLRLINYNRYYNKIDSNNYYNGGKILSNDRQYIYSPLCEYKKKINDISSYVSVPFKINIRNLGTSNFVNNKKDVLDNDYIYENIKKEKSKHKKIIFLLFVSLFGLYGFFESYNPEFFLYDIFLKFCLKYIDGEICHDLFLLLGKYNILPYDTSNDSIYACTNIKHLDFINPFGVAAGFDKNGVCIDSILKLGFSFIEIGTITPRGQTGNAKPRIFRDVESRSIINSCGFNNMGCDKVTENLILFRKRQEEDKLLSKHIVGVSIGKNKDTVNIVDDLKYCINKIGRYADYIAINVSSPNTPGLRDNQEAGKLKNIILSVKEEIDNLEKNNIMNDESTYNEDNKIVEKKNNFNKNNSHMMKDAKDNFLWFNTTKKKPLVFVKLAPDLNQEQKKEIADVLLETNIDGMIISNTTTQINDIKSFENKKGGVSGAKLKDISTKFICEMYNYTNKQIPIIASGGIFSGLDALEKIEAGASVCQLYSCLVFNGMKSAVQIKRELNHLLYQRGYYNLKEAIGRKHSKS
Excerpt: The potency of the near neighbor set led to an in silico target prediction study being performed on OSM-S-39 (Text S11). The method employed a naive Bayes statistical model identifying molecular structural features of small molecules with protein targets, using the ChEMBL database. Similar statistical approaches based on known activities of compounds have been successfully applied to identify targets of antitubercular compounds.[112]−[114] A total of 1,287 proteins were included for which at least 50 active compounds were known with activities <10 μM, with the other compounds in the database comprising the inactives. After the OSM compounds were scored against each target, the scores obtained were standardized by comparison with scores obtained through comparison with a random set of >10K compounds. The prediction list was culled for proteins relevant to malaria (3D7 proteome), and the analysis gave as the most likely candidate targets, in order of significance, carboxy-terminal domain RNA polymerase II polypeptide A small phosphatase 1 (Q8I3U9), dihydroorotate dehydrogenase (DHODH, Q08210), SUMO-activating enzyme subunit 2 (Q8I553) and 1 (Q8IHS2), and cyclin-dependent kinase 1 (P61075). […] A line of inquiry remaining open is the equivalent assays against the other targets identified in the in silico prediction.

Row | Compound | IC50
1 | Cc1cc(C=O)c(C)n1-c1ccc(F)cc1 [OSM-S-2] | > 50 µM
2 | CCOC(=O)c1cc(C)n(-c2ccc(F)cc2)c1C [OSM-S-3] | > 50 µM
3 | Cc1cc(C(=O)O)c(C)n1-c1ccc(F)cc1 [OSM-S-4] | > 50 µM
4 | Cc1cc(C(=O)OCC(=O)Nc2c(C)n(C)n(-c3ccccc3)c2=O)c(C)n1-c1ccc(F)cc1 [OSM-S-6] | > 50 µM
5 | Cc1cc(C(=O)N(C(=O)NC2CCCCC2)C2CCCCC2)c(C)n1-c1ccc(F)cc1 [OSM-S-7] | > 50 µM
6 | Cc1cc(C(=O)Nc2c(C)n(C)n(-c3ccccc3)c2=O)c(C)n1-c1ccc(F)cc1 [OSM-S-8] | > 50 µM
7 | Cc1c(NC(=O)CNC(=O)c2ccccc2)c(=O)n(-c2ccccc2)n1C [OSM-S-16] | > 50 µM
8 | Cc1cc(C(=O)NCC(N)=O)c(C)n1-c1ccc(F)cc1 [OSM-S-19] | > 50 µM
9 | Cc1cc(C(=O)NCC(=O)Nc2c(C)n(C)n(-c3ccccc3)c2=O)c(C)n1-c1ccc(F)cc1 [OSM-S-21] | > 50 µM
10 | Cc1ccc(-n2c(C)cc(/C=C3\SC(=Nc4ccccc4)NC3=O)c2C)cc1 [OSM-S-37] | > 50 µM
11 | Cc1cc(/C=C2\S/C(=N\c3ccccc3)N(CC#N)C2=O)c(C)n1-c1ccc(C(F)(F)F)cc1 [OSM-S-42] | > 50 µM
12 | Cc1cc(/C=C2\SC(N(CC#N)c3ccccc3)=NC2=O)c(C)n1-c1ccc(C(F)(F)F)cc1 [OSM-S-43] | > 50 µM
13 | CC(=O)N(C1=NC(=O)/C(=C/c2cc(C)n(-c3ccc(C(F)(F)F)cc3)c2C)S1)c1ccccc1 [OSM-S-45] | > 50 µM
14 | CCOC(=O)c1ccc(-n2c(C)cc(/C=C3\S/C(=N/c4ccccc4)NC3=O)c2C)cc1 [OSM-S-48] | > 50 µM
15 | CC(=O)N(C1=NC(=O)/C(=C/c2cc(C)n(-c3ccccc3)c2C)S1)c1ccccc1 [OSM-S-49] | > 50 µM
16 | CC(=O)N(C1=NC(=O)/C(=C/c2cc(C)n(-c3ccc(C)cc3)c2C)S1)c1ccccc1 [OSM-S-50] | > 50 µM
17 | Cc1cc(/C=C2\S/C(=N\c3ccccc3)NC2=O)c(C)n1-c1ccccn1 [OSM-S-51] | > 50 µM
18 | Cc1cc(/C=C2\S/C(=N\c3ccccc3)N(c3ccccc3)C2=O)c(C)n1-c1ccc(C(F)(F)F)cc1 [OSM-S-52] | > 50 µM
19 | Cc1cc(/C=C2\S/C(=N\c3ccccc3)N(C3CCCC3)C2=O)c(C)n1-c1ccc(C(F)(F)F)cc1 [OSM-S-54] | > 50 µM
20 | O=C1N=C(Nc2ccccc2)S/C1=C\c1ccccc1 [OSM-S-55] | > 50 µM

test system: not listed separately; assay: in vitro; set-up: microsomal stability with NADPH, LC-MS, half-life and CLint; conditions: human; liver microsomes; HLM; read-out: CLint HLM (Monash)
Description: (§1) The two original GSK hits (OSM-S-5 and -6) and six NN compounds were evaluated for their kinetic solubility in phosphate buffer and their metabolic stability in human liver microsomes (Table SB5, Data Sets S20 and S21).

Row | Compound | microsomal CLint
21 | Cc1cc(/C=C2\S/C(=N\c3ccccc3)NC2=O)c(C)n1-c1ccc(F)cc1 [OSM-S-10] | 17 µL/min/mg
22 | Cc1ccc(-n2c(C)cc(/C=C3\SC(=Nc4ccccc4)NC3=O)c2C)cc1 [OSM-S-37] | 7 µL/min/mg

same assay, conditions: human; liver microsomes; HLM; read-out: t1/2 HLM (Monash)

Row | Compound | half-life
23 | Cc1cc(/C=C2\S/C(=N\c3ccccc3)NC2=O)c(C)n1-c1ccc(F)cc1 [OSM-S-10] | 1.72 h
24 | Cc1ccc(-n2c(C)cc(/C=C3\SC(=Nc4ccccc4)NC3=O)c2C)cc1 [OSM-S-37] | 4.08 h

test system: T2, Plasmodium falciparum Pfal (K1); assay: microbe, parasite or virus in culture; set-up: species or system erythrocytes; P. falciparum asexual blood-stage whole-cell growth inhibition, IC50; conditions: K1, Erythrocyte, lab named in column head, read-out: Pfal (K1) IC50 (Guy)
T2 construct: K1
Description: (§2) To confirm the promise of the two starting points OSM-S-5 and -6, they were evaluated against 3D7 (drug-sensitive) and K1 (chloroquine resistant) strains of Plasmodium falciparum in a whole cell assay and against HEK-293 cells as a cytotoxicity marker (Table SB1, Biological Protocols; tables with the prefix “SB” may be found in the Supporting Information). Biological data may be browsed in a static data set taken as a snapshot for this paper (Data Sets S1 (Excel), S2 (SDF)), online in a database constructed through periodic batch uploads,[68] or in a “living database” to which may be added future data;[69] the latter may be visualized in a web browser[70] using an open source system that was recently deployed in the Wikipedia Chemical Structure Explorer,[71] or the data may be downloaded and visualized offline with proprietary (Figure S4)[72] or open source (Figure S5)[73] tools). The evaluation was performed in three different institutions using different assays and widely employed controls; controls are important to assess reproducibility and interassay variability[74] but also to minimize possible bias in evaluating compounds where there are pre-existing data from other researchers already in the public domain (Figure S6).[75]

Row | Compound | IC50
25 | Cc1ccc(-n2c(C)cc(/C=C3\SC(=Nc4ccccc4)NC3=O)c2C)cc1 [OSM-S-37] | 0.176 µM

test system: T3, Plasmodium falciparum Pfal (3D7); assay: microbe, parasite or virus in culture; set-up: species or system erythrocytes; P. falciparum asexual blood-stage whole-cell growth inhibition, IC50; conditions: 3D7, Erythrocyte, lab named in column head, read-out: Pfal IC50 (Guy)
T3 construct: 3D7
Description: as §2

Row | Compound | IC50
26 | Cc1ccc(-n2c(C)cc(/C=C3\SC(=Nc4ccccc4)NC3=O)c2C)cc1 [OSM-S-37] | 0.161 µM

test system: T4, Plasmodium falciparum K1 (chloroquine resistant); assay: microbe, parasite or virus in culture; set-up: species or system P. falciparum blood stage culture; whole-cell asexual blood stage P. falciparum growth inhibition; conditions: Guy assay, read-out: Pfal (K1) IC50 (Guy)
T4 construct: K1
Description: as §2

Row | Compound | IC50
27 | Cc1ccc(-n2c(C)cc(/C=C3\SC(=Nc4ccccc4)NC3=O)c2C)cc1 [OSM-S-37] | 0.176 µM

test system: Plasmodium falciparum Pfal (strain not named in column head); assay: microbe, parasite or virus in culture; set-up: species or system P. falciparum blood stage culture; whole-cell asexual blood stage P. falciparum growth inhibition; conditions: Guy assay
Description: as §2

Row | Compound | IC50
28 | Cc1ccc(-n2c(C)cc(/C=C3\SC(=Nc4ccccc4)NC3=O)c2C)cc1 [OSM-S-37] | 0.161 µM

test system: not listed separately; assay: in vitro; set-up: metabolic stability in human liver microsomes, LC-MS, NADPH, 0.4 mg/mL protein; conditions: liver microsomes; human liver microsomes; read-out: CLint HLM (Monash)
Description: as §1

Row | Compound | microsomal CLint
29 | Cc1cc(/C=C2\S/C(=N\c3ccccc3)NC2=O)c(C)n1-c1ccc(F)cc1 [OSM-S-10] | 17 µL/min/mg
30 | Cc1ccc(-n2c(C)cc(/C=C3\SC(=Nc4ccccc4)NC3=O)c2C)cc1 [OSM-S-37] | 7 µL/min/mg

same assay, conditions: liver microsomes; human liver microsomes; read-out: t1/2 HLM (Monash)

Row | Compound | half-life
31 | Cc1cc(/C=C2\S/C(=N\c3ccccc3)NC2=O)c(C)n1-c1ccc(F)cc1 [OSM-S-10] | 1.72 h
32 | Cc1ccc(-n2c(C)cc(/C=C3\SC(=Nc4ccccc4)NC3=O)c2C)cc1 [OSM-S-37] | 4.08 h
